Here are results for one compound from patent publication US20100273733A1, “HIV Treatment” (priority 2009, published 2010).

The subject of one data set is HIV. The experiment in a line: HIV replication in JC53 cells, viral core antigen P24 antibody kit. The data set is classed as cell-based. Particulars: Dex alone from greater or equal to 0.1 μmolar, effect topped out. The procedure: In another experiment, JC53 cells (HeLa cancer cells engineered to express CD4 and CCR5 receptors for HIV) are treated with HIV and the relevant agents to determine if DEAE inhibit HIV replication, using commercial antibody kit for viral core antigen P24 to assess level of virus production. […] The virus appears able to propagate and infect other cells. Dex alone indicated a 50% HIV activity inhibition from greater or equal to 0.1 μmolar. […] Similarly, 0.02 μmolar AZT alone has 40% inhibition of HIV replication.

The test system of data set [1] is Jurkat (T-lymphocyte) cells. The experiment in a line: Selective toxicity, cell viability by MTT or XTT, uninfected control cells. The format is cell-based. The procedure:
For purposes of the following experiments and unless otherwise specified, the standard DEAE/Dex concentration is about 6.0 to about 6.9 molar DEAE/0.1 molar Dex.
Selective Toxicity. Wells with 10^6 Jurkat (T-lymphocyte) cells were infected with HIV at Multiplicities of Infection (MOI—the number of viral particles vs. infectable cells) of 0.1 or 0.01 for 4 hours. The cells are treated with Dex, DEAE, DEAE/DEX or control for 48 hours. Cell viability was assayed by MTT or XTT method. In the control (uninfected) cells, standard concentrations of Dex, DEAE and DEAE/Dex are non-toxic (within standard deviation).
For orientation: Formazan colour is commonly taken as a measure of viable cells.

In turn, `C[C@@H]1C[C@H]2[C@@H]3CCC4=CC(=O)C=C[C@]4(C)[C@@]3(F)[C@@H](O)C[C@]2(C)[C@@]1(O)C(=O)CO` [Dex, dexamethasone] yielded an HIV activity inhibition in the data set on HIV of 50%. Also, the “toxicity (cell viability)” value in data set [1] is “non-toxic”.
